This note sets out measurements from US7560567B2, “2-pyridinylethylbenzamide derivatives” (Bayer Cropscience S.A., priority 2003, dated 2009).

One assay relates to Alternaria brassicae. The assay can be described thus: In vivo test on Alternaria brassicae (leaf spot of crucifers), radish plants, preventive spray. Particulars: for pest or weed control at 330 ppm: Alternaria brassicae, radish plants (Pernot), treated 24 h before contamination, grading 6 to 7 days after contamination vs control plants, read-out: protection (good, at least 50%, to total); for effectiveness on Alternaria brassicae: 330 ppm, comparison compounds of WO 01/11965. How it is done: (§1) The active ingredient tested is prepared by potter homogenisation in a concentrated suspension type formulation at 100 g/l. This suspension is then diluted with water to obtain the desired active material concentration.
Radish plants (Pernot variety) in starter cups, sown on a 50/50 peat soil-pozzolana substrate and grown at 18-20° C., are treated at the cotyledon stage by spraying with the aqueous suspension described above.
Plants, used as controls, are treated with an aqueous solution not containing the active material.
After 24 hours, the plants are contaminated by spraying them with an aqueous suspension of Alternaria brassicae spores (40,000 spores per cm^3). The spores are collected from a 12-13-day-old culture.
The contaminated radish plants are incubated for 6-7 days at about 18° C., under a humid atmosphere.
Grading is carried out 6 to 7 days after the contamination, in comparison with the control plants.

The next assay has as its system Pyrenophora teres. The assay can be described thus: In vivo test on Pyrenophora teres (barley net blotch), barley plants, preventive spray. Conditions: 288 h, barley plants (Express), treated 24 h before contamination, grading 12 days after contamination vs control plants, read-out: protection (good, at least 50%, to total). On the procedure:
as §1
Barley plants (Express variety) in starter cups, sown on a 50/50 peat soil-pozzolana substrate and grown at 12° C., are treated at the 1-leaf stage (10 cm tall) by spraying with the aqueous suspension described above. Plants, used as controls, are treated with an aqueous solution not containing the active material.
After 24 hours, the plants are contaminated by spraying them with an aqueous suspension of Pyrenophora teres spores (12,000 spores per ml). The spores are collected from a 12-day-old culture. The contaminated barley plants are incubated for 24 hours at about 20° C. and at 100% relative humidity, and then for 12 days at 80% relative humidity.
Grading is carried out 12 days after the contamination, in comparison with the control plants.

The subject of another assay is Botrytis cinerea. The assay can be described thus: In vivo test on Botrytis cinerea (gherkin grey mould), gherkin plants, preventive spray. Particulars: 330 ppm; comparison compounds of WO 01/11965. How it is done:
as §1
Gherkin plants (Petit Vert de Paris variety) in starter cups, sown on a 50/50 peat soil-pozzolana substrate and grown at 18-20° C., are treated at the cotyledon Z11 stage by spraying with the aqueous suspension described above. Plants, used as controls, are treated with an aqueous solution not containing the active material.
After 24 hours, the plants are contaminated by depositing drops of an aqueous suspension of Botrytis cinerea spores (150,000 spores per ml) on upper surface of the leaves. The spores are collected from a 15-day-old culture and are suspended in a nutrient solution composed of: • 20 g/L of gelatin • 50 g/L of cane sugar • 2 g/L of NH4NO3 • 1 g/L of KH2PO4
The contaminated gherkin plants are settled for 5/7 days in a climatic room at 15-11° C. (day/night) and at 80% relative humidity.
Grading is carried out 5/7 days after the contamination, in comparison with the control plants. Under these conditions, good (at least 50%) or total protection is observed at a dose of 330 ppm with the following compounds: 38 and 57.

Take `CC(CNC(=O)c1cc(Cl)ccc1Cl)c1ncc(C(F)(F)F)cc1Cl` (stereo not drawn) [Compound 3]: the pest or weed control at 330 ppm in the assay on Alternaria brassicae is ≥ 50%. On the same count and under the same terms, for `COc1ccccc1C(=O)NCC(C)c1ncc(C(F)(F)F)cc1Cl` (stereo not drawn) [Compound 4] the value was ≥ 50%. Regarding `Cc1ccccc1C(=O)NCC(C)c1ncc(C(F)(F)F)cc1Cl` (stereo not drawn) [Compound 7], the pest or weed control at 330 ppm with Alternaria brassicae and with Pyrenophora teres was ≥ 50% in each case.

For the molecule `Cc1cccc(C(=O)NCC(C)c2ncc(C(F)(F)F)cc2Cl)c1C` (stereo not drawn) [Compound 8], the pest or weed control at 330 ppm in the assay on Alternaria brassicae and in the assay with Pyrenophora teres was ≥ 50% in each case. For the molecule `Cc1ccc(C(=O)NCC(C)c2ncc(C(F)(F)F)cc2Cl)c(C)c1` (stereo not drawn) [Compound 9], the pest or weed control at 330 ppm in the assay on Alternaria brassicae and in the assay on Pyrenophora teres was ≥ 50% throughout.

For the molecule `Cc1ccc(C)c(C(=O)NCC(C)c2ncc(C(F)(F)F)cc2Cl)c1` (stereo not drawn) [Compound 10], the pest or weed control at 330 ppm in the assay on Alternaria brassicae and in the assay with Pyrenophora teres was ≥ 50% throughout. On to `CC(CNC(=O)c1cccc(Cl)c1F)c1ncc(C(F)(F)F)cc1Cl` (stereo not drawn) [Compound 11], for which, in the assay with Alternaria brassicae, the pest or weed control at 330 ppm is ≥ 50%. Take `Cc1c(Cl)cccc1C(=O)NCC(C)c1ncc(C(F)(F)F)cc1Cl` (stereo not drawn) [Compound 12]: the pest or weed control at 330 ppm in the assay on Alternaria brassicae was ≥ 50%. Turning to `Cc1c(F)cccc1C(=O)NCC(C)c1ncc(C(F)(F)F)cc1Cl` (stereo not drawn) [Compound 13], the pest or weed control at 330 ppm in the assay on Alternaria brassicae and with Pyrenophora teres was ≥ 50% each time. For `Cc1c(O)cccc1C(=O)NCC(C)c1ncc(C(F)(F)F)cc1Cl` (stereo not drawn) [Compound 15], the pest or weed control at 330 ppm in the assay with Alternaria brassicae is ≥ 50%.

In the case of `CCC(CNC(=O)c1cccc(OC)c1OC)c1ncc(C(F)(F)F)cc1Cl` (stereo not drawn) [Compound 21], the pest or weed control at 330 ppm with Alternaria brassicae is ≥ 50%. Still for that read-out and setting: as for `CCC(CNC(=O)c1ccccc1C)c1ncc(C(F)(F)F)cc1Cl` (stereo not drawn) [Compound 23], the figure is ≥ 50%; as for `CCC(CNC(=O)c1ccc(C)cc1C)c1ncc(C(F)(F)F)cc1Cl` (stereo not drawn) [Compound 25], ≥ 50%. Take `CCC(CNC(=O)c1cccc(O)c1C)c1ncc(C(F)(F)F)cc1Cl` (stereo not drawn) [Compound 30]: in the assay with Pyrenophora teres, the pest or weed control at 330 ppm is ≥ 50%. `CC(CNC(=O)c1ccccc1C(F)(F)F)c1ncc(C(F)(F)F)cc1Cl` (stereo not drawn) [Compound 32]: the pest or weed control at 330 ppm with Alternaria brassicae and in the assay with Pyrenophora teres was ≥ 50% each time. As to `CC(C)(CNC(=O)c1ccccc1C(F)(F)F)c1ncc(C(F)(F)F)cc1Cl` [Compound 33], the pest or weed control at 330 ppm in the assay with Alternaria brassicae and in the assay with Pyrenophora teres was ≥ 50% throughout. For `CCCC(CCC)(CNC(=O)c1ccccc1C(F)(F)F)c1ncc(C(F)(F)F)cc1Cl` [Compound 35], the pest or weed control at 330 ppm with Alternaria brassicae is ≥ 50%. The same measure, in the same setting: as for `CCCC(CCC)(CNC(=O)c1ccccc1I)c1ncc(C(F)(F)F)cc1Cl` [Compound 36], the figure is ≥ 50%. Turning to `CC(Cc1ncc(C(F)(F)F)cc1Cl)NC(=O)c1ccccc1C(F)(F)F` (stereo not drawn) [Compound 38], the pest or weed control at 330 ppm in the assay with Alternaria brassicae and in the assay with Pyrenophora teres was ≥ 50% throughout. For `CCC(CNC(=O)c1ccccc1C(F)(F)F)c1ncc(C(F)(F)F)cc1Cl` (stereo not drawn) [Compound 39, N-{2-[3-chloro-5-(trifluoromethyl)-2-Pyridinyl]butyl}-2-(trifluoromethyl)benzamide], the pest or weed control at 330 ppm in the assay with Pyrenophora teres is ≥ 50%.

`CCC(CNC(=O)c1ccccc1Br)c1ncc(C(F)(F)F)cc1Cl` (stereo not drawn) [Compound 40]: the pest or weed control at 330 ppm in the assay on Pyrenophora teres is ≥ 50%.

For `CCC(CNC(=O)c1ccccc1C(F)F)c1ncc(C(F)(F)F)cc1Cl` (stereo not drawn) [Compound 41], the pest or weed control at 330 ppm in the assay on Pyrenophora teres was ≥ 50%.

In the case of `CCCC(CNC(=O)c1ccccc1C(F)(F)F)c1ncc(C(F)(F)F)cc1Cl` (stereo not drawn) [Compound 42], the pest or weed control at 330 ppm in the assay on Alternaria brassicae was ≥ 50%. Consider `CCCC(CNC(=O)c1ccccc1Br)c1ncc(C(F)(F)F)cc1Cl` (stereo not drawn) [Compound 43], for which the pest or weed control at 330 ppm with Alternaria brassicae and in the assay with Pyrenophora teres was ≥ 50% throughout. For `CCCC(CNC(=O)c1ccccc1C(F)F)c1ncc(C(F)(F)F)cc1Cl` (stereo not drawn) [Compound 44], the pest or weed control at 330 ppm with Pyrenophora teres was ≥ 50%. Turning to `CCC(Cc1ncc(C(F)(F)F)cc1Cl)NC(=O)c1ccccc1C(F)(F)F` (stereo not drawn) [Compound 47, N-(1-{[3-chloro-5-(trifluoromethyl)-2-Pyridinyl]methyl}propyl)-2-(trifluoromethyl)benzamide], the pest or weed control at 330 ppm with Alternaria brassicae and with Pyrenophora teres was ≥ 50% throughout. For the molecule `CC(NC(=O)c1ccccc1C(F)(F)F)C(C)c1ncc(C(F)(F)F)cc1Cl` (stereo not drawn) [Compound 58], the pest or weed control at 330 ppm in the assay on Alternaria brassicae and in the assay with Pyrenophora teres was ≥ 50% each time.

For `CC(NC(=O)c1ccccc1I)C(C)c1ncc(C(F)(F)F)cc1Cl` (stereo not drawn) [Compound 59], the pest or weed control at 330 ppm in the assay on Alternaria brassicae and in the assay with Pyrenophora teres was ≥ 50% throughout. For the molecule `CC(Cc1ccc(C(F)(F)F)c(Cl)n1)NC(=O)c1ccccc1C(F)(F)F` (stereo not drawn) [Compound 61], the pest or weed control at 330 ppm in the assay with Pyrenophora teres is ≥ 50%. With `CC(CNC(=O)c1ccccc1C(F)(F)F)c1ccc(C(F)(F)F)c(Cl)n1` (stereo not drawn) [Compound 62], the pest or weed control at 330 ppm in the assay on Alternaria brassicae and with Pyrenophora teres was ≥ 50% each time. For `CC(CNC(=O)c1ccccc1I)c1ccc(C(F)(F)F)c(Cl)n1` (stereo not drawn) [Compound 63], the pest or weed control at 330 ppm in the assay on Alternaria brassicae and with Pyrenophora teres was ≥ 50% throughout. In the case of `CC(CNC(=O)c1ccccc1Br)c1ccc(C(F)(F)F)c(Cl)n1` (stereo not drawn) [Compound 64], the pest or weed control at 330 ppm with Alternaria brassicae and in the assay with Pyrenophora teres was ≥ 50% in each case.

For `CC(CNC(=O)c1ccccc1C(F)(F)F)c1ccc(C(F)(F)F)cn1` (stereo not drawn) [Compound 66], the pest or weed control at 330 ppm in the assay with Alternaria brassicae and with Pyrenophora teres was ≥ 50% in each case.

For the molecule `CC(CNC(=O)c1ccccc1I)c1ccc(C(F)(F)F)cn1` (stereo not drawn) [Compound 67], the pest or weed control at 330 ppm with Alternaria brassicae and with Pyrenophora teres was ≥ 50% in each case. For `CCNC(=O)C(Cc1ncc(C(F)(F)F)cc1Cl)NC(=O)c1ccccc1` (stereo not drawn) [compound 304, N-{1-ethylcarbamoyl-2-[3-chloro-5-(trifluoromethyl)-2-pyridinyl]-ethyl}-benzamide], the “effectiveness on Botrytis cinerea” value with Botrytis cinerea was “zero”.

In the case of `CCNC(=O)C(Cc1ncc(C(F)(F)F)cc1Cl)NC(=O)c1ccc(Cl)cc1` (stereo not drawn) [compound 306, N-{1-ethylcarbamoyl-2-[3-chloro-5-(trifluoromethyl)-2-pyridinyl]ethyl}-4-chlorobenzamide], in the assay with Botrytis cinerea, the “effectiveness on Botrytis cinerea” value is on record as “zero”. As for `CCNC(=O)C(Cc1ncc(C(F)(F)F)cc1Cl)NC(=O)c1cccc([N+](=O)[O-])c1` (stereo not drawn) [compound 307, N-{1-ethylcarbamoyl-2-[3-chloro-5-(trifluoromethyl)-2-pyridinyl]ethyl}-3-nitrobenzamide, reference compound], the “effectiveness on Alternaria brassicae” value in the assay with Alternaria brassicae was “poor”. The “effectiveness on Botrytis cinerea” value in the assay with Botrytis cinerea was “zero”.

As to `CCNC(=O)C(Cc1ncc(C(F)(F)F)cc1Cl)NC(=O)c1ccccc1Br` (stereo not drawn) [compound 310, N-{1-ethylcarbamoyl-2-[3-chloro-5-(trifluoromethyl)-2-pyridinyl]ethyl}-2-bromobenzamide], the “effectiveness on Botrytis cinerea” value with Botrytis cinerea is reported as “zero”. Same read-out and setting: as for `CNC(=O)C(Cc1ncc(C(F)(F)F)cc1Cl)NC(=O)c1ccccc1` (stereo not drawn) [compound 314, N-{1-methylcarbamoyl-2-[3-chloro-5-(trifluoromethyl)-2-pyridinyl]ethyl}-benzamide], the entry is “zero”. Still for that read-out and setting: as for `CNC(=O)C(Cc1ncc(C(F)(F)F)cc1Cl)NC(=O)c1ccc(OC)cc1` (stereo not drawn) [compound 315, N-{1-methylcarbamoyl-2-[3-chloro-5-(trifluoromethyl)-2-pyridinyl]ethyl}-4-methoxybenzamide], the entry is “zero”. As for `CNC(=O)C(Cc1ncc(C(F)(F)F)cc1Cl)NC(=O)c1ccc(-c2ccccc2)cc1` (stereo not drawn) [compound 316, N-{1-methylcarbamoyl-2-[3-chloro-5-(trifluoromethyl)-2-pyridinyl]-ethyl}-4-phenylbenzamide, reference compound], in the assay with Alternaria brassicae, the “effectiveness on Alternaria brassicae” value is reported as “poor”. Besides, in the assay on Botrytis cinerea, the “effectiveness on Botrytis cinerea” value is on record as “zero”.
